Data set [1] relates to LPS and nigericin stimulated cells. The experiment in a line: cells. In kind it is cell-based. Particulars: for IC50: Homo sapiens, read-out: CTG protective IC50. The protocol:
Viability of compound treated cells is measured using CellTiter-Glo® assay (Promega, Madison, Wis.) that measures the ATP content of cells which is proportional to the number of live cells within a well. This is a counter-screen to establish that the reduction of IL-1β levels in LPS and nigericin stimulated and compound treated cells is not due to cytotoxicity, but rather through the inhibition of the inflammasome pathway. Compounds inhibiting NRLP3 inflammasome activation ultimately increase the viability of LPS and nigericin stimulated cells by blocking NLRP3 mediated pyroptosis that would otherwise lead to cell lysis.

Data set [2] is described as follows: Human microsomal stability (Eh). The format is in vitro ADME. Particulars: hepatic extraction ratio; 0.5 mg/mL microsomal protein, 1 μM, NADPH; liver blood flow 20.7 mL/min/kg. The protocol:
The stock solutions of test article and positive control were prepared at a concentration of 10 mM using DMSO as diluents. All stock solutions were then diluted to working concentrations at 0.25 mM with 70% acetonitrile. The cofactor used in this study was NADPH regenerating system, that was composed of 6.5 mM NADP, 16.5 mM G-6-P, 3 U/mL G-6-P D. The quench reagent was consisted of acetonitrile containing tolbutamide and propanolol (serve as internal standard). Incubation mixtures containing 0.5 mg/mL liver microsomal protein and […] test article/positive control in 100 mM potassium phosphate buffer.
The 0-minute samples were prepared by addition of an 80 μL aliquot of each incubation mixture to 300 μL quench reagent to precipitate proteins. The samples were vortexed, and then a 20 μL aliquot of the NADPH regenerating system was added in. The reaction was initiated by addition of 80 μL of the NADPH regenerating system to 320 μL of each incubation mixture. The final incubation conditions achieved in 400 μL are: 0.5 mg/mL microsomal protein, 1 μM test article/positive control, 1.3 mM NADP, 3.3 mM glucose 6 phosphate, 0.6 U/mL glucose 6 phosphate dehydrogenase. The mixtures were incubated in a 37° C. water bath with gentle shaking. A 100 μL aliquot of each mixture was removed at 10, 30, 90 minutes to a clean 96-well plate which contains 300 μL quench reagent to precipitate proteins, and centrifuged (4000×g, 10 min). 80 μL of supernatant are taken into 96-well assay plates pre-added with 160 μL ultrapure water, and then analyzed by LC-MS/MS. Hepatic extraction ratio (Eh) values were calculated from measured in vitro clearance assuming a human liver blood flow of 20.7 mL/min/kg. Eh values of <0.3 are indicative of compounds with favorable metabolic stability.

Data set [3] has as its target T1, NLRP3 inflammasome (Homo sapiens, UniProt Q96P20). The experiment in a line: NLRP3 inflammasome activation assay in PBMCs (LPS priming, nigericin), IL-1β by ELISA. In kind it is cell-based. Set-up: Human peripheral blood mononuclear cells (PBMCs); host or cells: primary human PBMCs from healthy donors. Particulars: LPS, nigericin; for IC50: read-out: PBMC IL-1β IC50. Here is the method:
(§1) Some of the following assays were used to determine the inhibitory activity of the compounds on the NLRP3 inflammasome using a common inflammasome activation stimuli-nigericin.
Human peripheral blood mononuclear cells (PBMCs), consisting of lymphocytes (T, B and NK cells), monocytes and dendritic cells, were freshly isolated from human peripheral blood from healthy donors. Cells were obtained through an IRB approved donor program by iXCells Biotechnologies where all the donors were tested for bacterial and viral infections. Cells were purified from peripheral blood using ficoll gradient centrifugation.
(§2) Cells were then stimulated with 10 uM Nigericin (Sigma Aldrich; InvivoGen) for 1.5 h. Plates were centrifuged at 1,500 rpm for 3 minutes to pellet cells and supernatant was transferred into new plates for subsequent experiments.
(§3) For ELISA assays cells were seeded into 96-well plates. Post study, supernatants were removed and the levels of mature IL-1β, IL-18 and TNFα (Quantikine ELISA, R&D systems) were measured in cell conditioned media by ELISA according to manufacturer's instructions.
A general note: An ELISA detects its analyte on a solid surface through an enzyme-linked reagent.

A short description of another data set: Pharmacokinetics in mice. In kind it is in vivo, CD-1 Mice. The conditions noted are these: for Cmax / clearance / half-life / AUC(0-t) / Vd: mouse, plasma; for AUC(0-t): read-out: AUC 0-24 hr; for Vd: read-out: Vz. The protocol: The intravenous dosing solutions were administered at 1 mg/kg and were made by dissolving the test article into the formulations shown below. The oral dosing suspensions or solutions were administered at 10 mg/kg and were made by dissolving the test article in the formulations shown below. Blood samples were collected into tubes containing either K2EDTA or sodium heparin and kept chilled on ice block or wet ice immediately following collection and during processing. After centrifugation, the resulting plasma samples were stored in a freezer at −80° C. until samples were analyzed. Pharmacokinetic parameters were determined following measurement of compound concentrations in plasma using standard bioanalytical methods at timepoints ranging from 0 to 24 hours.

Data set [4] concerns the target T1, NLRP3 inflammasome. In words: NLRP3 inflammasome activation assay in Kupffer cells (LPS priming, nigericin), IL-1β/IL-18 by ELISA. In kind it is cell-based. Particulars: KCs.
Description: as §1
Human Kupffer cells (KCs), specialized liver macrophages residing in […], were obtained by gradient isolation from liver specimens harvested post-mortem by Samsara Sciences. Cells were obtained through an IRB approved donor program by Samsara Sciences and all donors tested negative for bacterial and viral infections.
as §2, §3

Where [5] appears, read: LPS and nigericin stimulated cells, CellTiter-Glo.
Setting [6] is: Male CD-1 Mice, PO, 10 mg/kg, 0.5% MC.
[7] abbreviates: Female CD-1 Mice, PO, 10 mg/kg, 0.5% MC, 0.25% Tween 80.

Like-named read-outs stand apart in the source and are kept apart here. Where only a bound is given, the exact number is not on record here.

Results on twelve compounds are retold here after US11702428B2, “Chemical compounds as inhibitors of interleukin-1 activity” (Genentech, Inc., priority 2017, dated 2023).

As a reminder, the IC50 is the concentration that inhibits the measured activity by half. Usually Cmax stands for the maximum level reached in the sampled fluid or tissue. Usually clearance stands for the rate of elimination divided by the concentration. Lower therefore signals a low capacity for elimination. As usually defined, the half-life is how long it takes for the measured level to halve.

T1 sequence (Q96P20 whole entry): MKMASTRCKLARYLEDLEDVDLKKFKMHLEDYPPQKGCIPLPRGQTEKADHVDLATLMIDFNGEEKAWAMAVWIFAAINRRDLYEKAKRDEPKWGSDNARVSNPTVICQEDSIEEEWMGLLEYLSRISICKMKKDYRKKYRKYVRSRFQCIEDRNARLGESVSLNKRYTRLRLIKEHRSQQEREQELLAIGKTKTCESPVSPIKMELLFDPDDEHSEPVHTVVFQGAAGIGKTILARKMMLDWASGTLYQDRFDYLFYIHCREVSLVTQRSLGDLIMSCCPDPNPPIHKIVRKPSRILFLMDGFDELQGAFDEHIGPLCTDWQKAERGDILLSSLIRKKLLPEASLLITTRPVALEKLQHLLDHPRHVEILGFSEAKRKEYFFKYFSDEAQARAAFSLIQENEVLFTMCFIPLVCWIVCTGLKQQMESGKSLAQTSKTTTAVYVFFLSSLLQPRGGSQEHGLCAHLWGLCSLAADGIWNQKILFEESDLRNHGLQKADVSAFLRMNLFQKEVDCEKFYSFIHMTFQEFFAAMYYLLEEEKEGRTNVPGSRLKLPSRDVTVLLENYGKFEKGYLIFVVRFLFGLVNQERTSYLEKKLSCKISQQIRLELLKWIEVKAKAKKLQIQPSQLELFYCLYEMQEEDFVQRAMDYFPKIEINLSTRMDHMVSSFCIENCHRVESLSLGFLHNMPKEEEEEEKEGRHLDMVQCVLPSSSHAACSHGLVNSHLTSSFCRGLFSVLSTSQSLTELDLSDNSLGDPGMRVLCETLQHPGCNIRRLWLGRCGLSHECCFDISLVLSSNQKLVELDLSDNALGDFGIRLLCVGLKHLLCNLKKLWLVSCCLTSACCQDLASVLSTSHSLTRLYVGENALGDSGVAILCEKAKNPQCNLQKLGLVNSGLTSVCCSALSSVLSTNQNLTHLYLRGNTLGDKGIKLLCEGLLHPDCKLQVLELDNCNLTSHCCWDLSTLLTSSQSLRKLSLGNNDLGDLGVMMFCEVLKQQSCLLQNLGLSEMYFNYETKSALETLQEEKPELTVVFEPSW

For `CNC1COc2c(S(=O)(=O)NC(=O)Nc3c4c(cc5c3CCC5)CCC4)cnn2C1` (stereo not drawn), in data set [1], the IC50 is less than 100 nM. Further, in data set [2], the “Human Microsomal Stability (Eh)” value is 0.1.
Turning to `Cc1ccc2cccnc2c1NC(=O)NS(=O)(=O)c1cnn2c1OCCC2`, the “CTG protective IC50” value in data set [1] (setting [5]) was “No Curve”. Further, the “PBMC IL-1β IC50” value at NLRP3 inflammasome [3] is “No Curve”.
As to `CN[C@H]1COc2c(S(=O)(=O)NC(=O)Nc3c4c(c(F)c5c3CCC5)CCC4)cnn2C1`, the IC50 (in data set [1] (setting [5]); at NLRP3 inflammasome [3]) was less than 100 nM each time. Further, in data set [2], the “Human Microsomal Stability (Eh)” value is reported as 0.2.
As for `CC1(C)COc2c(S(=O)(=O)NC(=O)Nc3c4c(cc5c3CCC5)CCC4)cnn2C1` [A], in “Pharmacokinetics in mice” (setting [6]), the “Bioavailability (% F)” value is 64 % F, the highest level (Cmax) was 22700 ng/mL, the half-life was 3.4 h and the AUC(0-t) came out at 186000 ng·h/mL. For the same compound, in the data set “Pharmacokinetics in mice” (Male CD-1 Mice, IV, 1 mg/kg), the Cmax was 9200 ng/mL, the clearance was 0.667 mL/min/kg, the half-life was 2.8 h and the AUC(0-t) amounted to 29200 ng·h/mL. Moreover, the Vd in “Pharmacokinetics in mice” (Male CD-1 Mice, IV, 1 mg/kg) came out at 0.137 L/kg.
As to `O=C(Nc1c2c(cc3c1CCC3)CCC2)NS(=O)(=O)c1cnn2c1OCC1(CC1)C2` [B], in the data set “Pharmacokinetics in mice” (setting [6]), the “Bioavailability (% F)” value is on record as 100 % F, the Cmax was 63000 ng/mL, the half-life is 1.9 h and the AUC(0-t) stood at 256000 ng·h/mL. Moreover, in “Pharmacokinetics in mice” (Male CD-1 Mice, IV, 1 mg/kg), the Cmax stood at 11700 ng/mL, the clearance was 0.833 mL/min/kg, the half-life is 1.9 h and the AUC(0-t) was found to be 20200 ng·h/mL. In addition, in the data set “Pharmacokinetics in mice” (Male CD-1 Mice, IV, 1 mg/kg), the Vd is 0.13 L/kg.
Consider `CN(C)[C@H]1COc2c(S(=O)(=O)NC(=O)Nc3c4c(cc5c3CCC5)CCC4)cnn2C1` [C], for which, in “Pharmacokinetics in mice” (setting [6]), the “Bioavailability (% F)” value turned out to be 33 % F, the Cmax was 7530 ng/mL, the half-life was 1 h and the AUC(0-t) was 9950 ng·h/mL. In the data set “Pharmacokinetics in mice” (Male CD-1 Mice, IV, 1 mg/kg), the Cmax came out at 5290 ng/mL, the clearance is 5.67 mL/min/kg, the half-life is 1.3 h and the AUC(0-t) was 2990 ng·h/mL. In addition, the Vd in “Pharmacokinetics in mice” (Male CD-1 Mice, IV, 1 mg/kg) turned out to be 0.64 L/kg.
With `O=C(Nc1c2c(cc3c1CCC3)CCC2)NS(=O)(=O)c1cnn2c1OCC1(COC1)C2` [Compound 5, N-((1,2,3,5,6,7-hexahydro-s-indacen-4-yl)carbamoyl)-5′,7′-dihydrospiro[oxetane-3,6′-pyrazolo[5,1-b][1,3]oxazine]-3′-sulfonamide], on NLRP3 inflammasome [4], the “IL-1β production in Kupffer cells (FIG. 2)” value is listed as “inhibition” and the “IL-18 production in Kupffer cells (FIG. 2)” value is reported as “inhibition”.
As for `CN[C@H]1COc2c(S(=O)(=O)NC(=O)Nc3c4c(cc5c3CCC5)CCC4)cnn2C1` [D], in “Pharmacokinetics in mice” (setting [7]), the “Bioavailability (% F)” value came to 69 % F, the Cmax was 13700 ng/mL, the half-life is 1.7 h and the AUC(0-t) amounted to 23500 ng·h/mL. In the data set “Pharmacokinetics in mice” (Female CD-1 Mice, IV, 1 mg/kg), the Cmax is 3310 ng/mL, the clearance is 5 mL/min/kg, the half-life is 1.6 h and the AUC(0-t) came to 3400 ng·h/mL. For the same compound, the Vd in the data set “Pharmacokinetics in mice” (Female CD-1 Mice, IV, 1 mg/kg) worked out at 0.69 L/kg.
For the compound `COC1CN([C@H]2COc3c(S(=O)(=O)NC(=O)Nc4c5c(cc6c4CCC6)CCC5)cnn3C2)C1` [E], in “Pharmacokinetics in mice” (setting [7]), the “Bioavailability (% F)” value is 53 % F, the Cmax was determined as 8620 ng/mL, the half-life was 1.9 h and the AUC(0-t) came to 8270 ng·h/mL. Besides, in “Pharmacokinetics in mice” (Female CD-1 Mice, IV, 1 mg/kg), the Cmax stood at 2830 ng/mL, the clearance was 10.7 mL/min/kg, the half-life was 1.6 h and the AUC(0-t) worked out at 1570 ng·h/mL. For the same compound, the Vd in the data set “Pharmacokinetics in mice” (Female CD-1 Mice, IV, 1 mg/kg) came to 1.47 L/kg.
In the case of `O=C(Nc1c2c(cc3c1CCC3)CCC2)NS(=O)(=O)c1cnn2c1OCCCC2` [drawing 515], the IC50 (in data set [1] (setting [5]); on NLRP3 inflammasome [3]) was less than 100 nM throughout.
Turning to `CC1CCOc2c(S(=O)(=O)NC(=O)Nc3c4c(cc5c3CCC5)CCC4)cnn21` (stereo not drawn) [drawing 516], the IC50 (in data set [1] (setting [5]); on NLRP3 inflammasome [3]) was less than 100 nM each time.
As for `O=C(Nc1c2c(cc3c1CCC3)CCC2)NS(=O)(=O)c1cnn2c1OCC(F)C2` (stereo not drawn) [drawing 517], the IC50 in data set [1] (setting [5]) was less than 100 nM; on NLRP3 inflammasome [3] it was 100 to 1000 nM.
